Measured values taken from US9446105B2, “Chimeric antigen receptor specific for folate receptor β” (THE TRUSTEES OF THE UNIVERSITY OF PENNSYLVANIA, priority 2013, dated 2016).
Entries after “also recorded” stand apart in the source; their conditions may differ.

Experiments:
[1] = tested on: FRβ expression on human AML cell lines; assay: ATRA treatment of AML cell lines, FRβ surface expression by flow cytometry; assay type: cell-based; conditions: 10 nM ATRA
Procedure: (§1) AML cell lines were plated on d0 at 2.5×10^5 per mL in complete media with final concentration 10 nM ATRA. On d3 fresh media with 10 nM ATRA was added to keep cells at 2.5×10^5 per mL. On d5 viable AML cells were washed and counted with trypan blue exclusion. Cells were then stained for FRβ surface expression and analyzed by flow cytometry, processed for RNA extraction, or used in co-cultures for functional assays.
Tumor cell surface expression of FRβ was detected by m909-IgG antibody (Dimiter Dimitrov) conjugated to biotin (EZ-Link Biotinylation Kit, Thermo). To block Fc receptor binding, tumor cells were incubated with 50 ug/mL unlabeled human IgG (Jackson ImmunoResearch) for 10 min. 3-5 ug/mL m909-biotin or human IgG-biotin isotype control was added, and cells were labeled for 30 min at 4 degrees, washed with FACS buffer, and labeled with Streptavidin-APC (BD) for 25 min at 4 degrees. Cells were washed, resuspended with 7AAD, and analyzed by flow cytometry.

ATRA-treated THP1 = assay: CAR T cell recognition of ATRA-treated AML cell lines (cytokine release); assay type: cell-based, human; conditions: 10 nM ATRA
Procedure: These assays were performed by co-culture of 10^5 CAR+ T cells with 10^5 target cells per well (or media alone) in triplicate in 96-well plates in a 200 μL volume of complete media. After ˜24 hours, plates were centrifuged at 1200 RPM to pellet the cells, and co-culture supernatants were removed and assayed for the presence of IFN-γ by ELISA (Biolegend). Values represent the mean of triplicate wells. IL-2, IL-4, IL-10, IFN-γ, and TNF-α cytokines were measured by flow cytometry with Cytometric Bead Array (BD Biosciences). The cell pellets were then labeled with antibodies for CD3 and CD69, and assessed by flow cytometry. Live, CD3+ gates were used for analysis of CD69 upregulation. For m909 CAR T cells, GFP was used as a marker for CAR+ cells. In some cases cell pellets were labeled for FRβ surface expression following co-cultures.
as §1, with “On d3 fresh media with 10 nM ATRA was added to keep cells at 2.5×10^5 per mL.” left out
Cell lines and CAR+ T cells were prepared as above (for cytokine release assays). […] Culture supernatants were then collected and analyzed for cytokines as described.

Compound: CC1=C(/C=C/C(C)=C/C=C/C(C)=C/C(=O)O)C(C)(C)CCC1 [ATRA, all-trans retinoic acid]
- FRβ expression on AML cells [1]: enhanced the intensity of FRβ expression on the AMLs; also recorded: increases FRβ expression; also recorded: enhanced surface expression of FRβ; also recorded: induced FRβ upregulation
- IFNγ secretion by CAR T cells towards ATRA-treated AML cells (ATRA-treated THP1): enhances; also recorded: IFNγ production
- immune recognition of ATRA-treated AML cells by FRβ CAR T cells (ATRA-treated THP1): increased immune recognition by FRβ CAR T cells; also recorded: increased immune recognition by m909 CAR T cells; also recorded: enhances FRβ-mediated m909 CAR T cell recognition; also recorded: increases immune recognition
